The values below come from US9562057B2, “(Thieno[2,3-b][1,5]benzoxazepin-4-yl)piperazin-1-yl compounds as dual activity H1 inverse agonists/5-HT2A antagonists” (Eli Lilly and Company, priority 2013, dated 2017).

The structures appear in SMILES notation. Structures can show the parent of a compound that is named as a salt. A value given as a limit tells only on which side of the number the result lay.

One series concerns the target 5-HT2B (Homo sapiens, UniProt P41595). Kind of series: 5-HT2B antagonist functional activity. It is filed as biochemical. The conditions noted are these: antagonist mode. The source says:
(§1) Further, the compounds of the invention may be tested in binding assays and functional activity assays by well known methods for other physiologically important receptors such as, but not limited to, the hERG channel, other serotonin receptors (specifically 5-HT1B and 5-HT1D receptors, lack of agonist activity at 5-HT2B receptors, 5-HT2C, 5-HT5, 5-HT6, and 5-HT7 receptors), dopaminergic receptors (specifically D1, D2, and D3), GABAA receptors, adrenergic receptors and monoamine transporters.

The target in a further series is hERG Channel (Homo sapiens, UniProt Q12809). In words: hERG channel inhibition. The conditions noted are these: inhibition at 10 μM.
Text: as §1
Background: hERG is a cardiac potassium channel; its block is linked to QT prolongation.

A further series addresses 5-HT1D (Homo sapiens, UniProt P28221). In words: 5-HT1D binding.
Text: as §1

The next series concerns the target T1, 5-HT2A Receptor (Rattus norvegicus, UniProt P14842).
T1 construct: samples of the frontal cortex and cerebellum are removed; from tissue; host or cells: rat brain (frontal cortex versus cerebellum), in vivo
Kind of series: 5-HT2A receptor occupancy in vivo (MDL 100907 tracer). The conditions noted are these: male Sprague-Dawley rats, oral gavage, 1 hr. before tracer, absolute ED50. The protocol:
Briefly, male Sprague-Dawley rats (Harlan Sprague-Dawley, Indianapolis, Ind.) weighing approximately 230-280 grams are given ad lib access to food and water until the beginning of the 3-hr. experimental protocol. 1 mg/kg ketanserin (non-selective 5-HT2A antagonist) is used as a positive control to establish assay validity. Test compounds or control are administered by oral gavage in a vehicle comprised of 20% hydroxypropyl beta-cyclodextrin. MDL 100907 ((R)-(+)-α-(2,3-Dimethoxyphenyl)-1-[2-(4-fluorophenyl)ethyl]-4-piperidinemethanol), a selective 5-HT2A antagonist, is used as a tracer. […] It is at the time of tracer administration that RO is considered to be measured. […] The level of MDL 100907 tracer is measured in each cortical and cerebellar sample. RO is calculated using the well-established ratio method which employs a region of high receptor density representative of total binding (frontal cortex) normalized by an area without or with very low levels of receptor (cerebellum). […]
Cortex and cerebellar samples are weighed and placed in conical centrifuge tubes on ice. […] Standards are prepared by adding known quantities of analyte to brain tissue samples from non-treated rats and processing as described above. […]

A short description of another series: Plasma clearance. It is filed as in vivo. The conditions noted are these: dog, 1 mg/kg, male Beagle dogs, intravenous, 1 mL/kg of 1.0 mg/mL (free base equivalents). The protocol:
Male Beagle dogs (body weight range 10-12 kg) are obtained from Marshall Bioresources, USA. Test compound is administered intravenously in solution (1 mL/kg) in 20% Captisol® in 22.5 mM phosphate buffer, pH 2, at a final drug concentration of 1.0 mg/mL (free base equivalents). Blood samples are obtained from the jugular vein over 24 hr. Samples of plasma are obtained by centrifugation and stored frozen (−20° C.) prior to analysis.
Frozen plasma samples are thawed to room temperature for bioanalysis of concentrations of test compound. A related internal standard compound in acetonitrile/methanol (1:1, v/v) is added to all samples of plasma (1:1, v/v). The samples are centrifuged to remove precipitated protein prior to analysis. The supernatants are analysed by injection and rapid gradient elution on a Javelin Betasil C18 column (20×2.1 mm cartridge, Mobile phase A: Water/1 M NH4HCO3, 2000:10 v/v, Mobile Phase B: MeOH/1 M NH4HCO3, 2000:10 v/v). The eluted analytes are detected by LC-MS-MS analysis using a Sciex API 4000 triple quadrupole mass spectrometer. Concentrations of compound are determined from standards prepared and analysed under identical conditions. Clearance is calculated using non-compartmental analysis in Watson 7.4, Thermo Fisher Scientific, Inc.

5-HT2B, sequence (P41595 whole entry, species assumed): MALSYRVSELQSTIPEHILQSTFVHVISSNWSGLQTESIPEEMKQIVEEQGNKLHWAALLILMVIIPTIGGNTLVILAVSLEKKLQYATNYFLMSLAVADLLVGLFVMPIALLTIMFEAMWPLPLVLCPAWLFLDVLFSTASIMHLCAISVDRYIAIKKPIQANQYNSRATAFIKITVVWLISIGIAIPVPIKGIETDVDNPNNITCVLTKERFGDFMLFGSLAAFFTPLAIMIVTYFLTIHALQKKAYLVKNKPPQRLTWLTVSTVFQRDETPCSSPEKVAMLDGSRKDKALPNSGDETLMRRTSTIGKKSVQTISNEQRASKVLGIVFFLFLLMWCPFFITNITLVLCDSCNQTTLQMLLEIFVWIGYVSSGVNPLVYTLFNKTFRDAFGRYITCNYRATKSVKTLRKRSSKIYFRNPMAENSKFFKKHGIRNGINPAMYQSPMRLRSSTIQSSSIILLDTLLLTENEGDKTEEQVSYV
5-HT1D, sequence (P28221 whole entry, species assumed): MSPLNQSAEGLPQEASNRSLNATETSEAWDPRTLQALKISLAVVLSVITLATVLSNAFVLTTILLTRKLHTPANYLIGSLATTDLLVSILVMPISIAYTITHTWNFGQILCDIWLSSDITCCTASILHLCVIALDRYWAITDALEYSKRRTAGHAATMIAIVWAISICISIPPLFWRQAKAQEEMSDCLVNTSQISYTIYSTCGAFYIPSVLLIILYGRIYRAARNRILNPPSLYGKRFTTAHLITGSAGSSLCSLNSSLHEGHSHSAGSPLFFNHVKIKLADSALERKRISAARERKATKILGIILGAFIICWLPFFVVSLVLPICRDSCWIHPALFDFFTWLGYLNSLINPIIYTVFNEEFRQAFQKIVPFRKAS
hERG Channel, sequence (Q12809 whole entry): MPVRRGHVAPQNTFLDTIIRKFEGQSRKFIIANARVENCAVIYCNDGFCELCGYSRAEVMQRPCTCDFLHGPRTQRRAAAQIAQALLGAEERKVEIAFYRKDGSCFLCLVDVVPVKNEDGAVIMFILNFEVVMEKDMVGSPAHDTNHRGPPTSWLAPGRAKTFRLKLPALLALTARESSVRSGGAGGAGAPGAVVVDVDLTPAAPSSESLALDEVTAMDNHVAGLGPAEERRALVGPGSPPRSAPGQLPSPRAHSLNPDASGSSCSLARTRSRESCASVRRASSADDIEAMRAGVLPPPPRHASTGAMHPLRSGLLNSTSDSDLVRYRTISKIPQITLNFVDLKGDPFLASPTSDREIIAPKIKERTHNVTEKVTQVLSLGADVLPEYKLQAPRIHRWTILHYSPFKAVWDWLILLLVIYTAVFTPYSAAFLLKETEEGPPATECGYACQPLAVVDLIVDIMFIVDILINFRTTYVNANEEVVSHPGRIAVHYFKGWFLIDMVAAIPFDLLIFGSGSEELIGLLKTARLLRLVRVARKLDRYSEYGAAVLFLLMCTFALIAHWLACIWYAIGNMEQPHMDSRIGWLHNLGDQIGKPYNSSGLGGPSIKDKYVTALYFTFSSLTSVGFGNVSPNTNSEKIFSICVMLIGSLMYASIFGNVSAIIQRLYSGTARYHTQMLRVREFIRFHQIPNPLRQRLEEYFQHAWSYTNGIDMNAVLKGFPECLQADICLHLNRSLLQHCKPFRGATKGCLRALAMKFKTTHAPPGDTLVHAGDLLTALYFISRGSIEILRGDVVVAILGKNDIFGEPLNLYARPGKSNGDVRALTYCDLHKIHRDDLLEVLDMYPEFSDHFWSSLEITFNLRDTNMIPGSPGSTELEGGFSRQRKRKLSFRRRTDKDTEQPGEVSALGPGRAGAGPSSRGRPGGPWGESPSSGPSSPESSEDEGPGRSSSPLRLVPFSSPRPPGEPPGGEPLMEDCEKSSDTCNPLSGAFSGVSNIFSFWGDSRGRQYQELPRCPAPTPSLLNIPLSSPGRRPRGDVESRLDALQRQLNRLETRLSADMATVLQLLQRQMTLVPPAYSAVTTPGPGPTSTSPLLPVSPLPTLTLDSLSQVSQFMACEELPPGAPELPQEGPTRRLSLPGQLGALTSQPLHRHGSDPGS
T1 sequence (P14842 whole entry): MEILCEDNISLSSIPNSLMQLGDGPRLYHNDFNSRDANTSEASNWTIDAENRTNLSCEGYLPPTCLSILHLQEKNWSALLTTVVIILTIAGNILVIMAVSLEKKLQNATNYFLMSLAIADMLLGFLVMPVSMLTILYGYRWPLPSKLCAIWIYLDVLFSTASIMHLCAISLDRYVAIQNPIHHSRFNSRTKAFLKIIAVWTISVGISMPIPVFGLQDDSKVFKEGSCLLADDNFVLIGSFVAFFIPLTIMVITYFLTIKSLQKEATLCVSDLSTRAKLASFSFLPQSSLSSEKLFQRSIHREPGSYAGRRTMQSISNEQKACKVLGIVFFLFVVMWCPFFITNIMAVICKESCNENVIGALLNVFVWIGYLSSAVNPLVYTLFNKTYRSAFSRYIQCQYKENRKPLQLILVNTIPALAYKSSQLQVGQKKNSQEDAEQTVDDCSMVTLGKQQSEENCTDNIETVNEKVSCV

As a reminder, the Kb is the equilibrium dissociation constant of an antagonist, usually derived from a functional assay. Lower therefore signals higher antagonist affinity. The term Ki denotes the equilibrium dissociation constant of an inhibitor or competing ligand from its target. The low end stands for higher affinity, the high end for lower affinity. By ED50 is commonly meant the midpoint of the dose-response relation. The term clearance denotes a measure of how efficiently the substance is removed, as volume per time. Turning to `Cc1ccc2c(c1)Oc1sc(C3CC3)cc1C(N1CCN(CC(C)(C)C(=O)O)CC1)=N2` [Example 2, 3-[4-(2-Cyclopropyl-8-methyl-thieno[2,3-b][1,5]benzoxazepin-4-yl)piperazin-1-yl]-2,2-dimethyl-propanoic acid dihydrochloride], the Kb at 5-HT2B was 93.4 nM. Moreover, the “hERG Channel (μM)” value at hERG Channel was found to be 53% inhibition. On 5-HT1D, this molecule came in with a Ki of over 3980 nM. The same molecule showed an ED50 at 5-HT2A Receptor of 0.41 mg/kg. In addition, the clearance in “Plasma clearance” was 6.06 mL/min/kg.
